Measurements reported in ChEMBL document CHEMBL6153034, “Synthesis of dolutegravir derivatives modified by 1,2,3-triazole structure and their anti-inflammatory activity in LPS-induced BV2 cells” (Bioorg Med Chem Lett, 2025).
Calls of active or inactive are those of the source.

What was measured:
[1] = Acute toxicity in male Kunming mouse assessed as histopathological changes in kidney at 250 mg/kg administered via gavage by H and E staining based analysis; type: organism-based; conditions: in vivo, po
[2] = Acute toxicity in male Kunming mouse assessed as histopathological changes in heart at 250 mg/kg administered via gavage by H and E staining based analysis; type: organism-based; conditions: in vivo, po
[3] = Acute toxicity in male Kunming mouse assessed as effect on organ coefficient of heart at 250 mg/kg administered via gavage; type: organism-based; conditions: in vivo, po
[4] = target: Signal transducer and activator of transcription 3 (Mus musculus) (UniProt P42227); test: Inhibition of STAT3 phosphorylation at Tyr705 residue in LPS-induced mouse BV-2 cells at 5 to 10 uM preincubated for 2 hrs followed by LPS addition and measured after 3 hrs by Western blot analysis; type: cell-based; conditions: dose 5-10 µM, time 5.0 hrs
Chain of Signal transducer and activator of transcription 3 (Mus musculus) (P42227 whole entry): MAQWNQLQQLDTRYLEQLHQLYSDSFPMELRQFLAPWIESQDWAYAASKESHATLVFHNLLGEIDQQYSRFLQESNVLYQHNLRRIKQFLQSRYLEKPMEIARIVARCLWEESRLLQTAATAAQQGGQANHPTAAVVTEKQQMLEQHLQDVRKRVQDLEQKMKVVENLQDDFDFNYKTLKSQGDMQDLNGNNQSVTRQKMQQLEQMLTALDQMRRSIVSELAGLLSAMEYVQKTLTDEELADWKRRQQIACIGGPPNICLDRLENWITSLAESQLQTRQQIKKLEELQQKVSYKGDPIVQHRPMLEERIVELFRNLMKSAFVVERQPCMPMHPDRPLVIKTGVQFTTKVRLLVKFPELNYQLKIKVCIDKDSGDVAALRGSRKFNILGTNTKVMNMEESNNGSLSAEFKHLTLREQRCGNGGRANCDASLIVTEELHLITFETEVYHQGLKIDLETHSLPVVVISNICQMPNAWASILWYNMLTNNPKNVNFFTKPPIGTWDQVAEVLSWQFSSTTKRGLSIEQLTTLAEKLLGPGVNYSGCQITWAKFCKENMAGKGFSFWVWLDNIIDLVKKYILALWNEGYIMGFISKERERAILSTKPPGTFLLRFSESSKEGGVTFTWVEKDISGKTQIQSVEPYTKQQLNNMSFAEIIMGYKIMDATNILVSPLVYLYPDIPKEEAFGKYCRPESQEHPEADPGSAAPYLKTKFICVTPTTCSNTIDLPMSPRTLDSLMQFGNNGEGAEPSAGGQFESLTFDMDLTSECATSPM

BV-2 [5] = test: Antiinflammatory activity in LPS induced mouse BV-2 cells assessed as NO production at 1 uM by Griess reagent based assay relative to control
[6] = Cytotoxicity against mouse BV-2 cells assessed as cell viability at 1 uM by MTT assay relative to control; type: toxicity, cell-based; conditions: read-out: Activity
BV-2 [7] = test: Antiinflammatory activity in LPS-induced mouse BV-2 cells assessed as reduction in NO production preincubated for 2 hrs followed by LPS addition and measured after 24 hrs by Griess reagent based analysis; type: functional, cell-based; conditions: dose 5-10 µM, time 26.0 hrs
[8] = Acute toxicity in male Kunming mouse assessed as histopathological changes in spleen at 250 mg/kg administered via gavage by H and E staining based analysis; type: organism-based; conditions: in vivo, po
[9] = Acute toxicity in female Kunming mouse assessed as effect on body weight at 250 mg/kg administered via gavage for 14 days; type: organism-based; conditions: in vivo, po, 336 h, time 14 day
[10] = Acute toxicity in female Kunming mouse assessed as histopathological changes in spleen at 250 mg/kg administered via gavage by H and E staining based analysis; type: organism-based; conditions: in vivo, po
[11] = Acute toxicity in female Kunming mouse assessed as histopathological changes in lung at 250 mg/kg administered via gavage by H and E staining based analysis; type: organism-based; conditions: in vivo, po
BV-2 [12] = test: Inhibition of LPS-induced nuclear translocation of p-STAT1 in mouse BV-2 cells at 10 uM preincubated for 2 hrs followed LPS addition and measured after 3 hrs by DAPI staining based immunofluorescence assay; type: functional, cell-based; conditions: time 5.0 hrs
[13] = Acute toxicity in female Kunming mouse assessed as effect on organ coefficient of spleen at 250 mg/kg administered via gavage; type: organism-based; conditions: in vivo, po
[14] = Acute toxicity in female Kunming mouse assessed as histopathological changes in heart at 250 mg/kg administered via gavage by H and E staining based analysis; type: organism-based; conditions: in vivo, po
BV-2 [15] = test: Antiinflammatory activity in LPS-induced mouse BV-2 cells assessed as decrease in IL-6 production preincubated for 2 hrs followed by LPS addition and measured after 24 hrs by qRT-PCR analysis; type: functional, cell-based; conditions: dose 5-10 µM, time 26.0 hrs
[16] = Acute toxicity in male Kunming mouse assessed as effect on body weight at 250 mg/kg administered via gavage for 14 days; type: organism-based; conditions: in vivo, po, 336 h, time 14 day
[17] = Acute toxicity in male Kunming mouse assessed as effect on organ coefficient of kidney at 250 mg/kg administered via gavage; type: organism-based; conditions: in vivo, po
BV-2 [18] = test: Antiinflammatory activity in LPS induced mouse BV-2 cells assessed as inhibition of NO production by Griess reagent based assay; type: functional, cell-based
BV-2 [19] = test: Inhibition of LPS-induced nuclear translocation of p-STAT1 in mouse BV-2 cells at 10 uM preincubated for 2 hrs followed LPS addition and measured after 3 hrs by Western blot analysis; type: functional, cell-based; conditions: time 5.0 hrs
[20] = Acute toxicity in male Kunming mouse assessed as effect on organ coefficient of liver at 250 mg/kg administered via gavage; type: organism-based; conditions: in vivo, po
[21] = Cytotoxicity against mouse BV-2 cells assessed as cell viability at 10 uM by MTT assay relative to control; type: toxicity, cell-based; conditions: read-out: Activity
[22] = Acute toxicity in female Kunming mouse assessed as effect on organ coefficient of heart at 250 mg/kg administered via gavage; type: organism-based; conditions: in vivo, po
[23] = Acute toxicity in female Kunming mouse assessed as effect on organ coefficient of lung at 250 mg/kg administered via gavage; type: organism-based; conditions: in vivo, po
[24] = Acute toxicity in male Kunming mouse assessed as increase in GPT level in blood at 250 mg/kg administered via gavage by biochemical analysis; type: organism-based; conditions: in vivo, po
BV-2 [25] = test: Inhibition of LPS-induced nuclear translocation of p-STAT3 in mouse BV-2 cells at 10 uM preincubated for 2 hrs followed LPS addition and measured after 3 hrs by DAPI staining based immunofluorescence assay; type: functional, cell-based; conditions: time 5.0 hrs
BV-2 [26] = test: Antiinflammatory activity in LPS-induced mouse BV-2 cells assessed as downregulation of COX2 mRNA expression level at 5 to 10 uM preincubated for 2 hrs followed by LPS addition and measured after 6 hrs by qRT-PCR analysis; type: functional, cell-based; conditions: dose 5-10 µM, time 8.0 hrs
[27] = Acute toxicity in male Kunming mouse assessed as histopathological changes in lung at 250 mg/kg administered via gavage by H and E staining based analysis; type: organism-based; conditions: in vivo, po
[28] = Acute toxicity in female Kunming mouse assessed as effect on organ coefficient of liver at 250 mg/kg administered via gavage; type: organism-based; conditions: in vivo, po
[29] = Acute toxicity in male Kunming mouse assessed as effect on organ coefficient of spleen at 250 mg/kg administered via gavage; type: organism-based; conditions: in vivo, po
[30] = Acute toxicity in female Kunming mouse assessed as histopathological changes in kidney at 250 mg/kg administered via gavage by H and E staining based analysis; type: organism-based; conditions: in vivo, po
[31] = Acute toxicity in female Kunming mouse assessed as effect on GPT level in blood at 250 mg/kg administered via gavage by biochemical analysis; type: organism-based; conditions: in vivo, po
[32] = Acute toxicity in female Kunming mouse assessed as histopathological changes in liver at 250 mg/kg administered via gavage by H and E staining based analysis; type: organism-based; conditions: in vivo, po
BV-2 [33] = test: Antiinflammatory activity in LPS induced mouse BV-2 cells assessed as downregulation of IL-6 mRNA expression level preincubated for 2 hrs followed by LPS addition and measured after 24 hrs by qRT-PCR analysis; type: functional, cell-based; conditions: dose 5-10 µM, time 26.0 hrs
BV-2 [34] = test: Antiinflammatory activity in LPS induced mouse BV-2 cells assessed as downregulation of TNF-alpha mRNA expression level preincubated for 2 hrs followed by LPS addition and measured after 24 hrs by qRT-PCR analysis; type: functional, cell-based; conditions: dose 5-10 µM, time 26.0 hrs
[35] = Acute toxicity in female Kunming mouse assessed as effect on organ coefficient of kidney at 250 mg/kg administered via gavage; type: organism-based; conditions: in vivo, po
[36] = Acute toxicity in male Kunming mouse assessed as histopathological changes in liver at 250 mg/kg administered via gavage by H and E staining based analysis; type: organism-based; conditions: in vivo, po
BV-2 [37] = test: Antiinflammatory activity in LPS-induced mouse BV-2 cells assessed as decrease in TNF-alpha production preincubated for 2 hrs followed by LPS addition and measured after 24 hrs by qRT-PCR analysis; type: functional, cell-based; conditions: dose 5-10 µM, time 26.0 hrs
[38] = Acute toxicity in female Kunming mouse assessed as effect on GOT level in blood at 250 mg/kg administered via gavage by biochemical analysis; type: organism-based; conditions: in vivo, po
BV-2 [39] = test: Antiinflammatory activity in LPS-induced mouse BV-2 cells assessed as downregulation of iNOS mRNA expression level at 5 to 10 uM preincubated for 2 hrs followed by LPS addition and measured after 6 hrs by qRT-PCR analysis; type: functional, cell-based; conditions: dose 5-10 µM, time 8.0 hrs

COc1c2n(cc(C(=O)Nc3cccc(-c4cn(-c5ccccc5Cl)nn4)c3)c1=O)C[C@@H]1OCC[C@@H](C)N1C2=O
71%: level, % of control at 1 µM (BV-2 [5])
4.45 µM: IC50 (BV-2 [18])
86.7%: viability at 10 µM [21]
active: inhibition [4] | Activity (BV-2 [7]) Dose-dependent-effect | inhibition (BV-2 [12]) | Activity (BV-2 [15]) Dose-dependent-effect | inhibition (BV-2 [19]) | inhibition (BV-2 [25]) | Activity (BV-2 [26]) | Activity (BV-2 [33]) Dose-dependent-effect | Activity (BV-2 [34]) Dose-dependent-effect | Activity (BV-2 [37]) Dose-dependent-effect | Activity (BV-2 [39])
Non-toxic: Activity [1] | Activity [2] | Activity [3] | Activity [8] | Activity [9] | Activity [10] | Activity [11] | Activity [13] | Activity [14] | Activity [16] | Activity [17] | Activity [20] | Activity [22] | Activity [23] | Activity [27] | Activity [28] | Activity [29] | Activity [30] | Activity [31] | Activity [32] | Activity [35] | Activity [36] | Activity [38]
Toxic: Activity [24]
88%: viability at 1 µM [6]
